Test results from patent US20260241039A1, “FLUORESCENT PROBES FOR MAGL” (Hoffmann-La Roche Inc., priority 2022, published 2026).
pIC50: −log10 of the molar value.

molecular target: T1, hMAGL (Homo sapiens, UniProt Q99685); experiment: 2-AG assay: MAGL inhibitory activity, hydrolysis of 2-arachidonoylglycerol to arachidonic acid followed by mass spectrometry; assay type: biochemical; details: 15 min pre-incubation at RT, 30 min reaction at RT, 8 μM 2-arachidonoylglycerol
T1 sequence (Q99685 1-303): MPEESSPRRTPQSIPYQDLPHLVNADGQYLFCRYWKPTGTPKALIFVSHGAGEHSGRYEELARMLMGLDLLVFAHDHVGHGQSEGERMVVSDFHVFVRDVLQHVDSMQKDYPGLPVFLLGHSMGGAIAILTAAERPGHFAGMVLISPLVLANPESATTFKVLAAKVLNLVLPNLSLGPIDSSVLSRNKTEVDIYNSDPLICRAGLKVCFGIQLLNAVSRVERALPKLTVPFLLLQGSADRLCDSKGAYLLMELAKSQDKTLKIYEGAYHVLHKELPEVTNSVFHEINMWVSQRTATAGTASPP
Protocol: Compounds were profiled for MAGL inhibitory activity by determining the enzymatic activity by following the hydrolysis of the natural substrate 2-arachidonoylglycerol (2-AG) resulting in arachidonic acid, which can be followed by mass spectrometry. This assay is hereinafter abbreviated “2-AG assay”.
The 2-AG assay was carried out in 384 well assay plates (PP, Greiner Cat #784201) in a total volume of 20 μL. Compound dilutions were made in 100% DMSO (VWR Chemicals 23500.297) in a polypropylene plate in 3-fold dilution steps to give a final concentration range in the assay from 12.5 μM to […]. 0.25 μL compound dilutions (100% DMSO) were added to 9 μL MAGL in assay buffer (50 mM TRIS (GIBCO, 15567-027), 1 mM EDTA (Fluka, 03690-100 mL), 0.01% (v/v) Tween. After shaking, the plate was incubated for 15 min at RT. To start the reaction, 10 μL 2-arachidonoylglycerol in assay buffer was added. The final concentrations in the assay was […] and 8 μM 2-arachidonoylglyerol. After shaking and 30 min incubation at RT, the reaction was quenched by the addition of 40 μL of ACN containing 4 μM of d8-arachidonic acid. The amount of arachidonic acid was traced by an online SPE system (Agilent Rapidfire) coupled to a triple quadrupole mass spectrometer (Agilent 6460). A C18 SPE cartridge (G9205A) was used in an ACN/water liquid setup. The mass spectrometer was operated in negative electrospray mode following the mass transitions 303.1→259.1 for arachidonic acid and 311.1→267.0 for d8-arachidonic acid. The activity of the compounds was calculated based on the ratio of intensities [arachidonic acid/d8-arachidonic acid].

Row | Compound | pIC50
1 | O=C1CO[C@H]2CCN(C(=O)N3CC(COc4ccc5ccc(=O)oc5c4)C3)C[C@H]2N1 [Example 2, (4aR,8aS)-6-(3-(((2-oxo-2H-chromen-7-yl)oxy)methyl)azetidine-1-carbonyl)hexahydro-2H-pyrido[4,3-b][1,4]oxazin-3(4H)-one] | 6.31
2 | (R)-4-(3-(6-((5,5-difluoro-5H-4λ^4,5λ^4-dipyrrolo[1,2-c:2′,1′-f][1,3,2]diazaborinin-10-yl)methyl)-2-azaspiro[3.3]heptan-2-yl)-3-oxopropyl)oxazolidin-2-one [Example 28] | 9.00
3 | O=C1CO[C@H]2CCN(C(=O)N3CCC(Nc4ccc([N+](=O)[O-])c5nonc45)CC3)C[C@H]2N1 [Example 6, (4aR,8aS)-6-(4-((7-nitrobenzo[c][1,2,5]oxadiazol-4-yl)amino)piperidine-1-carbonyl)hexahydro-2H-pyrido[4,3-b][1,4]oxazin-3(4H)-one] | 5.42
4 | (4aR,8aS)-6-(7-((5,5-difluoro-5H-4λ^4, 5λ^4-dipyrrolo[1,2-c:2,1′-f][1,3,2]diazaborinin-10-yl)methyl)-2-azaspiro[3.5]nonane-2-carbonyl)hexahydro-2H-pyrido[4,3-b][1,4]oxazin-3(4H)-one [Example 19] | 8.63
5 | (4aR,8aS)-6-(6-((5,5-difluoro-5H-4λ^4, 5λ^4-dipyrrolo[1,2-c:2′,1′-f][1,3,2]diazaborinin-10-yl)oxy)-2-azaspiro[3.3]heptane-2-carbonyl)hexahydro-2H-pyrido[4,3-b][1,4]oxazin-3(4H)-one [Example 8] | 7.10
6 | 6-(6-((5,5-difluoro-5H-4λ^4,5λ^4-dipyrrolo[1,2-c:2′,1′-f][1,3,2]diazaborinin-10-yl)methyl)-2-azaspiro[3.3]heptane-2-carbonyl)-2H-benzo[b][1,4]oxazin-3(4H)-one [Example 24] | 8.12
7 | O=C1CO[C@H]2CCN(C(=O)N3CC(COC4=C5C=CC=[N+]5[B-](F)(F)n5cccc54)C3)C[C@H]2N1 [Example 7, (4aR,8aS)-6-(3-(((5,5-difluoro-5H-4λ^4,5λ^4-dipyrrolo[1,2-c:2,1′-f][1,3,2]diazaborinin-10-yl)oxy)methyl)azetidine-1-carbonyl)hexahydro-2H-pyrido[4,3-b][1,4]oxazin-3(4H)-one] | 5.59
8 | (4aR,8aS)-6-(6-((5,5-difluoro-3-(1H-pyrrol-2-yl)-5H-4λ^4,5λ^4-dipyrrolo[1,2-c:2′,1′-f][1,3,2]diazaborinin-10-yl)methyl)-2-azaspiro[3.3]heptane-2-carbonyl)hexahydro-2H-pyrido[4,3-b][1,4]oxazin-3(4H)-one [Example 30] | 10.30
9 | (6-((5,5-difluoro-5H-424, 5λ^4-dipyrrolo[1,2-c:2′,1′-f][1,3,2]diazaborinin-10-yl)methyl)-2-azaspiro[3.3]heptan-2-yl)(4-(5-methyloxazolo[4,5-b]pyridin-2-yl)piperazin-1-yl)methanone [Example 26] | 7.77
10 | 2-(6-((5,5-difluoro-5H-4λ^4,5λ^4-dipyrrolo[1,2-c:2′,1′-f][1,3,2]diazaborinin-10-yl)methylene)-2-azaspiro[3.3]heptane-2-carbonyl)-7-oxa-2,5-diazaspiro[3.4]octan-6-one [Example 22] | 7.90
11 | 2-(7-((5,5-difluoro-5H-4λ^4,5λ^4-dipyrrolo[1,2-c:2′,1′-f][1,3,2]diazaborinin-10-yl)methylene)-2-azaspiro[3.5]nonane-2-carbonyl)-7-oxa-2,5-diazaspiro[3.4]octan-6-one [Example 20] | 9.17
12 | O=C1CO[C@H]2CCN(C(=O)N3CC4(CC(Oc5ccc6ccc(=O)oc6c5)C4)C3)C[C@H]2N1 [Example 1] | 6.59
13 | (4aR,8aS)-6-(2-((5,5-difluoro-5H-4λ^4, 5λ^4-dipyrrolo[1,2-c:2,1′-f][1,3,2]diazaborinin-10-yl)oxy)-7-azaspiro[3.5]nonane-7-carbonyl)hexahydro-2H-pyrido[4,3-b][1,4]oxazin-3(4H)-one [Example 12] | 7.35
14 | 2-(7-((5,5-difluoro-5H-4λ^4,5λ^4-dipyrrolo[1,2-c:2′,1′-f][1,3,2]diazaborinin-10-yl)methyl)-2-azaspiro[3.5]nonane-2-carbonyl)-7-oxa-2,5-diazaspiro[3.4]octan-6-one [Example 21] | 9.16
15 | (6-(3-cyclopropyl-1H-1,2,4-triazol-1-yl)-2-azaspiro[3.3]heptan-2-yl)(6-((5,5-difluoro-5H-4λ^4,5λ^4-dipyrrolo[1,2-c:2,1′-f][1,3,2]diazaborinin-10-yl)methyl)-2-azaspiro[3.3]heptan-2-yl)methanone [Example 25] | 9.47
16 | 2-(6-((5,5-difluoro-5H-4λ^4,5λ^4-dipyrrolo[1,2-c:2′,1′-f][1,3,2]diazaborinin-10-yl)methyl)-2-azaspiro[3.3]heptane-2-carbonyl)-7-oxa-2,5-diazaspiro[3.4]octan-6-one [Example 23] | 8.90
17 | O=C1COC2CCN(C(=O)N3C[C@@H]4[C@@H](COC5=C6C=CC=[N+]6[B-](F)(F)n6cccc65)[C@@H]4C3)CC2N1 (stereo partly drawn) [Example 14, (4aR,8aS)-6-((1R,5S,6R)-6-(((5,5-difluoro-5H-4λ^4,5λ^4-dipyrrolo[1,2-c:2′,1′-f][1,3,2]diazaborinin-10-yl)oxy)methyl)-3-azabicyclo[3.1.0]hexane-3-carbonyl)hexahydro-2H-pyrido[4,3-b][1,4]oxazin-3(4H)-one] | 6.30
18 | O=C(N1CC2(CC(CC3=C4C=CC=[N+]4[B-](F)(F)n4c3ccc4-c3ccc[nH]3)C2)C1)N1CC2(CC(n3cnc(C4CC4)n3)C2)C1 [Example 31, (6-(3-cyclopropyl-1H-1,2,4-triazol-1-yl)-2-azaspiro[3.3]heptan-2-yl)(6-((5,5-difluoro-3-(1H-pyrrol-2-yl)-5H-5λ^4,6λ^4-dipyrrolo[1,2-c:2′,1′-f][1,3,2]diazaborinin-10-yl)methyl)-2-azaspiro[3.3]heptan-2-yl)methanone] | 9.23
19 | (4aR,8aS)-6-(6-((5,5-difluoro-3-phenyl-5H-4λ^4,5λ^4-dipyrrolo[1,2-c:2′,1′-f][1,3,2]diazaborinin-10-yl)methyl)-2-azaspiro[3.3]heptane-2-carbonyl)hexahydro-2H-pyrido[4,3-b][1,4]oxazin-3(4H)-one [Example 29] | 9.18
20 | O=C1CO[C@H]2CCN(C(=O)N3CC4(CC(CC5=C6C=CC=[N+]6[B-](F)(F)n6cccc65)C4)C3)C[C@H]2N1 [Example 16, (4aR,8aS)-6-(6-((5,5-difluoro-5H-4λ^4,5λ^4-dipyrrolo[1,2-c:2,1′-f][1,3,2]diazaborinin-10-yl)methyl)-2-azaspiro[3.3]heptane-2-carbonyl)hexahydro-2H-pyrido[4,3-b][1,4]oxazin-3(4H)-one] | 9.11
21 | (4aR,8aS)-6-(4-((5,5-difluoro-5H-4λ^4, 5λ^4-dipyrrolo[1,2-c:2′,1′-f][1,3,2]diazaborinin-10-yl)oxy)piperidine-1-carbonyl)hexahydro-2H-pyrido[4,3-b][1,4]oxazin-3(4H)-one [Example 9] | 5.20
22 | (4aR,8aS)-6-(4-((5,5-difluoro-5H-4λ^4, 5λ^4-dipyrrolo[1,2-c:2,1′-f][1,3,2]diazaborinin-O-yl)methylene)piperidine-1-carbonyl)hexahydro-2H-pyrido[4,3-b][1,4]oxazin-3(4H)-one [Example 17] | 5.77
23 | NC(=O)[C@H]1CCN(C(=O)N2CC3(CC(CC4=C5C=CC=[N+]5[B-](F)(F)n5cccc54)C3)C2)C1 [Example 27, (S)-1-(6-((5,5-difluoro-5H-4λ^4,5λ^4-dipyrrolo[1,2-c:2,1′-f][1,3,2]diazaborinin-10-yl)methyl)-2-azaspiro[3.3]heptane-2-carbonyl)pyrrolidine-3-carboxamide] | 8.70
24 | COc1ccc2c(CN3CCN(C(=O)N4CC[C@@H]5OCC(=O)N[C@@H]5C4)CC3)cc(=O)oc2c1 [Example 5, (4aR,8aS)-6-(4-((7-methoxy-2-oxo-2H-chromen-4-yl)methyl)piperazine-1-carbonyl)hexahydro-2H-pyrido[4,3-b][1,4]oxazin-3(4H)-one] | 5.48
25 | (4aR,8aS)-6-(7-((5,5-difluoro-5H-4λ^4, 5λ^4-dipyrrolo[1,2-c:2,1′-f][1,3,2]diazaborinin-10-yl)methylene)-2-azaspiro[3.5]nonane-2-carbonyl)hexahydro-2H-pyrido[4,3-b][1, 4]oxazin-3(4H)-one [Example 18] | 9.19
26 | (4aR,8aS)-6-(7-((5,5-difluoro-5H-4λ^4, 5λ^4-dipyrrolo[1,2-c:2,1′-f][1,3,2]diazaborinin-10-yl)oxy)-2-azaspiro[3.5]nonane-2-carbonyl)hexahydro-2H-pyrido[4,3-b][1,4]oxazin-3(4H)-one [Example 10] | 8.42
